Like-named read-outs stand apart in the source and are kept apart here.
Tests used:
[1] = system: ARPE-19 cells; assay: Phagocytosis analysis by flow cytometry (fluorescent carboxylate microspheres); assay type: cell-based, human; conditions: 6 hours; for percentage of ARPE-19 phagocytic cells / mean fluorescence intensity (phagocytic index): 50 μM statin; for percentage of ARPE-19 phagocytic cells: control 31%; for mean fluorescence intensity (phagocytic index): control 332; for percentage of phagocytic ARPE-19 cells: DMSO control 31%; for mean fluorescence intensity of cells: control 340
Protocol: A flow cytometric assay was used to evaluate cell phagocytosis according to a protocol described by Pranab (Mukherjee et al., 2007 Proc Natl Acad Sci USA 104:13158-63). Briefly, ARPE-19 cells were seeded in 12-well plates and cultured until 90% confluent. […] After incubation, cells were washed with PBS three times to remove any extracellular beads, then trypsinized (0.25% trypsin-EDTA, Gibco, US) for 1 minute, and neutralized with pre-warmed culture medium. The cell suspension was collected and centrifuged (241 g, 5 minutes). The cell pellet was re-suspended in 0.5 ml PBS for each sample. Subsequently, the cells were analyzed for green phagocytized fluorescent beads (excitation wavelength of 441 nm and emission wavelength of 486 nm) by a FACScalibur flow cytometer using the CellQuest 3.0.1 (Becton & Dickinson, Mountain View, Calif., US) and FlowJo 10.0 software. The percent of phagocytic cells present in each group was recorded as well as the mean fluorescence intensity of engulfed particles.
The percentage of phagocytic ARPE-19 cells and the mean fluorescence intensity of engulfed particles per group were measured by flow cytometry 6 hours after treatment.
Vavvas et al., 2016 EBioMedicine 5:198-203). […] The effects of cholesterol crystals and ox-LDL on the phagocytic function of RPE cells were studied because impairment of this function is linked to AMD (Nandrot et al., 2007 Adv Exp Med Biol 801:978-1). ARPE-19 cells were treated with 2 mg/ml cholesterol crystals for 6 hours, or 300 μg/ml oxLDL for 18 hours. The phagocytic function was then assessed by flow cytometry, as described in the methods.

[2] = system: patient with AMD (large soft drusen); assay: Report of initial case: 80 mg atorvastatin daily in a patient with AMD; assay type: in vivo, human
Protocol: (§1) A case report and pilot multi-center prospective interventional study were conducted with IRB approval. Inclusion criteria were patients over the age of 50 with diagnosis of AMD and the presence of many large, soft drusen/drusenoid PEDs in both eyes. […] Pseudophakia was not a reason for exclusion, unless accompanied by significant posterior capsular opacity.
An otherwise healthy person with AMD presented deteriorating visual acuity. Their baseline visual acuity was 20/25 with significant distortion; they were already taking Age-Related Eye Disease Study (AREDS) supplementation. […] Spectral domain optical coherence tomography (SD-OCT) confirmed the significant extent of these deposits and pigment epithelial detachments as well as the overlying RPE and photoreceptor architectural distortion (FIG. 2, top row). No subretinal or intraretinal fluid was present. Standard AREDS supplementation was continued. […]

[3] = system: patients with AMD with many large, soft drusen/drusenoid PEDs
Protocol: as §1

[4] = system: IL-6; assay: IL-6 secretion from ARPE-19 cells (western blot of culture medium); assay type: cell-based, human
Protocol: (§2) ARPE-19 cells were seeded in 6-well plates at a density of 1×10^5 cells/well. […] The membrane was then washed and incubated with secondary antibodies. The membrane was developed with enhanced chemiluminescence. The intensity of protein bands was measured using the software Image Lab 4.1 (Bio-Rad, Hercules, Calif., US).
Cholesterol crystals induce the secretion of the inflammatory cytokines IL-6 and IL-8 in ARPE-19 cells (Hu et al., 2014 Discovery Med. 18(97):7-14). […] The levels of IL-6 and IL-8 were evaluated using western blot or ELISA. As expected, cholesterol crystals increased ARPE-19 secretion of IL-6 and IL-8, 3.2- and 2.5-fold, respectively, compared to control treatment (FIGS. 7A and B). […] Similar to cholesterol crystals, incubation of ARPE-19 with ox-LDL led to a 2.6- and 1.3-fold increase in secreted IL-6 and IL-8, respectively.

[5] = system: IL-8; assay: IL-8 secretion from ARPE-19 cells (western blot / ELISA); assay type: cell-based, human
Protocol: as §2
IL-8 induced by oxLDL was measured by analysis of conditioned media of ARPE-19 cells using an ELISA kit (IL-8, R&D Systems, Minneapolis, Minn., US) according to the manufacturer's instructions.
Cholesterol crystals induce the secretion of the inflammatory cytokines IL-6 and IL-8 in ARPE-19 cells (Hu et al., 2014 Discovery Med. 18(97):7-14). […] The levels of IL-6 and IL-8 were evaluated using western blot or ELISA. As expected, cholesterol crystals increased ARPE-19 secretion of IL-6 and IL-8, 3.2- and 2.5-fold, respectively, compared to control treatment (FIGS. 7A and B). […]. […].

[6] = six months after 80 mg atorvastatin
[7] = 50 μM atorvastatin, 300 μg/ml ox-LDL 18 hours
[8] = 50 μM atorvastatin, cholesterol crystals

## CC[C@H](C)C(=O)O[C@H]1C[C@@H](C)C=C2C=C[C@H](C)[C@H](CC[C@@H]3C[C@@H](O)CC(=O)O3)[C@H]21 [lovastatin]
[1]
  percentage of ARPE-19 phagocytic cells: 53%
  mean fluorescence intensity (phagocytic index): 502

## CC(C)c1c(C(=O)Nc2ccccc2)c(-c2ccccc2)c(-c2ccc(F)cc2)n1CC[C@@H](O)C[C@@H](O)CC(=O)O [atorvastatin]
[2]; person with AMD, six months after 80 mg atorvastatin daily
  visual acuity improved by: 12 letters
[2]; [6]
  atrophy of the RPE (SD-OCT): without accompanying atrophy of the RPE
  drusen (fundus examination and SD-OCT): complete disappearance of the drusen
[2]; six months after 80 mg atorvastatin daily, 20/30 before treatment
  visual acuity: 20/20
[3]; All (n = 23)
  Chol. Reduction: −62 +/− 35
[3]; All (n = 23), initial 77.6 +/- 8.3
  Last VA (letters): 77.7 +/− 8.4 letters
[3]; All (n = 23), initial 208 +/- 34.9
  Last Cholesterol: 147 +/− 31
[3]; Non Responders (n = 13)
  Chol. Reduction: 71 +/− 35.9
  VA gain (loss): −2.3
[3]; Non Responders (n = 13), initial 80.2 +/- 6
  Last VA (letters): 77.9 +/− 7.1 letters
[3]; Non Responders (n = 13), initial 207 +/- 37.4
  Last Cholesterol: 136 +/− 24.4
[3]; Responders (n = 10)
  Chol. Reduction: 49 +/− 31.2
  VA gain (loss): +3.3
[3]; Responders (n = 10), initial 74.2 +/- 9.9
  Last VA (letters): 77.5 +/− 10.3 letters
[3]; Responders (n = 10), initial 210 +/- 33.4
  Last Cholesterol: 161 +/− 34.2
[3]; among 23 patients who completed
  patients showing near-complete regression of drusen deposits: eight
[3]; high-dose atorvastatin
  effect on progression of pigmentary changes or of pre-existing atrophy: did not appear to have a positive or negative effect
[3]; non-responders
  letters lost on average: 2.2 letters
[3]; of 26 patients enrolled
  patients who exited the study (cramps, muscle aches, hair loss): Three
[3]; patients who completed the pilot study
  patients who responded to the treatment (regression of drusen deposits): Ten of 23
[3]; responders
  average time to response: 11.7 months
  letters gained on average: 3 letters
  time to response, range: 3-22 months
[1]; 1 μM atorvastatin
  percentage of phagocytic ARPE-19 cells: 35%
  mean fluorescence intensity of cells: 368
[1]; 25 μM atorvastatin
  percentage of phagocytic ARPE-19 cells: 40%
  mean fluorescence intensity of cells: 443
[1]; [7]
  decrease in mean fluorescence intensity induced by ox-LDL: completely reversed
  decrease in the percentage of phagocytic cells induced by ox-LDL: completely reversed
[1]; 50 μM atorvastatin
  percentage of phagocytic ARPE-19 cells: 42%
  mean fluorescence intensity of cells: 453
[1]; [8]
  decrease in mean fluorescence intensity induced by cholesterol crystals: completely reversed
  decrease in the percentage of phagocytic cells induced by cholesterol crystals: completely reversed
[1]
  percentage of ARPE-19 phagocytic cells: 43%
[1]; 75 μM atorvastatin
  percentage of phagocytic ARPE-19 cells: 46%
  mean fluorescence intensity of cells: 467
[4]; 0.1 μM atorvastatin pretreatment, cholesterol crystals (3.2-fold alone)
  levels of IL-6 compared to control: 1.7 fold
[4]; 0.1 μM atorvastatin pretreatment, ox-LDL (2.6-fold alone)
  levels of IL-6 compared to control: 1.9 fold
[4]; 0.5 μM atorvastatin pretreatment, ox-LDL (2.6-fold alone)
  levels of IL-6 compared to control: 1.3 fold
[4]; 1 μM atorvastatin pretreatment, cholesterol crystals (3.2-fold alone)
  levels of IL-6 compared to control: 0.8 fold
[4]; 1 μM atorvastatin pretreatment, ox-LDL (2.6-fold alone)
  levels of IL-6 compared to control: 1.4 fold
[5]; 0.1 μM atorvastatin pretreatment, cholesterol crystals (2.5-fold alone), western blot
  levels of IL-8 compared to control: 1.8 fold
[5]; 0.1 μM atorvastatin pretreatment, ox-LDL (1.3-fold alone), ELISA
  levels of IL-8 compared to control: 1.2 fold
[5]; 0.5 μM atorvastatin pretreatment, cholesterol crystals (2.5-fold alone), western blot
  levels of IL-8 compared to control: 1.6 fold
[5]; 0.5 μM atorvastatin pretreatment, ox-LDL (1.3-fold alone), ELISA
  levels of IL-8 compared to control: 1.02 fold
[5]; 1 μM atorvastatin pretreatment, cholesterol crystals (2.5-fold alone), western blot
  levels of IL-8 compared to control: 1.1 fold
[5]; 1 μM atorvastatin pretreatment, ox-LDL (1.3-fold alone), ELISA
  levels of IL-8 compared to control: 0.99 fold

## CCC(C)(C)C(=O)O[C@H]1C[C@@H](C)C=C2C=C[C@H](C)[C@H](CC[C@@H]3C[C@@H](O)CC(=O)O3)[C@H]21 [simvastatin]
[1]
  percentage of ARPE-19 phagocytic cells: 56%
  mean fluorescence intensity (phagocytic index): 513

Source: patent US11331295B2, “High-dose statins for age-related macular degeneration” (MASSACHUSETTS EYE AND EAR INFIRMARY, priority 2015, dated 2022)
